System: tobacco budworm (Heliothis virescens [Fabricius])
Test: surface-treated diet test against the tobacco budworm
Type: in vivo
Details: tobacco budworm second instar larvae, 0.25 millimoles of candidate insecticide on the surface of the diet, five-day exposure; for Percent Mortality: compared to total number of insects infested; for Percent Growth Inhibition: inhibition of insect weight relative to untreated controls
Method in brief: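 Wheat germ artificial diet surface-treated with 40 µL of 50 mM DMSO stock diluted 1:7 in 1:1 water/acetone (0.25 millimolar on diet), or sub-multiples for rate tests. One second-instar larva per well, 25° C, 60% RH, 5 days; percent weight inhibition vs DMSO controls and percent mortality.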

Row | Compound | Percent Mortality | Percent Growth Inhibition
1 | [O-][N+]1(Cc2ccc(Oc3ncccn3)cc2)CCC(=C(c2ccc(C(F)(F)F)cc2)c2ccc(C(F)(F)F)cc2)CC1 (centres unmarked) [Compound 854] | 100% | 100%
2 | [O-][N+]1(Cc2ccc(Oc3ccc(Cl)nn3)cc2)CCC(=C(c2ccc(C(F)(F)F)cc2)c2ccc(C(F)(F)F)cc2)CC1 (centres unmarked) [Compound 855] | 100% | 100%
3 | [O-][N+]1(Cc2ccc(Oc3ncccn3)cc2)CCC(=C(c2ccc(C(F)(F)F)cc2)c2cc(Cl)cc(Cl)c2)CC1 (centres unmarked) [Compound 856] | 50% | 100%
4 | [O-][N+]1(Cc2ccc(Oc3ncccn3)cc2)CCC(=C(c2ccc(C(F)(F)F)cc2)c2ccccc2Cl)CC1 (centres unmarked) [Compound 857] | 83% | 100%
5 | FC(F)(F)c1ccc(C(=C2CCN(Cc3ccc(Oc4ccccc4)nc3)CC2)c2ccc(C(F)(F)F)cc2)cc1 [Compound 858] | 17% | 99%
6 | FC(F)(F)c1ccc(C(=C2CCN(Cc3ccc(Nc4ncccn4)nc3)CC2)c2ccc(C(F)(F)F)cc2)cc1 [Compound 859] | 0% | 46%
7 | CCOS(=O)(=O)[O-].CCO[N+]1(Cc2ccc(Oc3ccccn3)cc2)CCC(C(OC(=O)Nc2ccc(Cl)cc2)c2ccc(C(F)(F)F)cc2)CC1 (centres unmarked) [Compound 860, N-(4-chlorophenyl)({1-ethoxy-1-[(4-(2-pyridyloxy)phenyl)methyl](4-piperidyl)}[4-(trifluoromethyl)phenyl]methoxy)carboxamide, ethyl sulfate salt] | 100% | 100%

From patent US7300946B2, “N-(substituted arylmethyl)-4-(disubstituted methyl) piperidines and pyridines” (Bayer CropScience AG, priority 2002, dated 2007)
